Test results published in PubChem BioAssay (NCI).
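In this assay, cells in 96-well plates receive the compound at five concentrations for 48 hours. Endpoints are linearly interpolated between the surrounding concentrations. The concentration for 50% growth inhibition is given as GI50. TGI: total growth inhibition.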 Activity calls are given as the source filed them. Rule as the data show it: active = GI50 below about 0.43 µM; inactive = the rest.

Columns and labels:
Assay in all cases: NCI-60 cell line screen, 48 h
K-562 leukemia = system: K-562 leukemia
NCI-H226 lung = system: NCI-H226 lung
A498 renal = system: A498 renal
RPMI-8226 leukemia = system: RPMI-8226 leukemia
HOP-62 NSCLC = system: HOP-62 NSCLC
MDA-MB-231 breast = system: MDA-MB-231 breast
TK-10 renal = system: TK-10 renal
M14 melanoma = system: M14 melanoma
DU-145 prostate = system: DU-145 prostate

SMILES | TGI (K-562 leukemia) | TGI (NCI-H226 lung) | TGI (A498 renal) | TGI (RPMI-8226 leukemia) | TGI (HOP-62 NSCLC) | GI50 (K-562 leukemia) | GI50 (MDA-MB-231 breast) | TGI (MDA-MB-231 breast) | GI50 (TK-10 renal) | TGI (TK-10 renal) | GI50 (HOP-62 NSCLC) | TGI (M14 melanoma) | TGI (DU-145 prostate) | outcome (M14 melanoma) | outcome (MDA-MB-231 breast) | outcome (NCI-H226 lung) | outcome (A498 renal) | outcome (DU-145 prostate) | outcome (TK-10 renal) | outcome (HOP-62 NSCLC)
Cc1ccc(C#CS(=O)(=O)C(F)(F)F)cc1 | > 100 µM | > 100 µM | > 100 µM | > 100 µM | > 100 µM | – | – | – | – | – | – | – | – | – | – | – | – | – | – | –
COc1cc(-c2nc3cc(Cl)c(Cl)cc3[nH]2)ccc1OCC(=O)N=Nc1c(O)[nH]c2ccc(Cl)cc12 | – | – | – | – | 1.98 µM | 284 nM | 538 nM | 1.95 µM | 2530 nM | > 100 µM | 455 nM | – | – | – | – | – | – | – | – | –
N#Cc1ccc(C2Oc3ccc(Cl)cc3C=C2[N+](=O)[O-])cc1 (configuration not stated) | 2.04 µM | 29.6 µM | 6.31 µM | 1.25 µM | 3.8 µM | – | – | 3.63 µM | – | 3.38 µM | – | 2.73 µM | 6.07 µM | – | – | – | – | – | – | –
O=Cc1c(Br)[nH]c2ccccc12 | > 100 µM | > 100 µM | > 100 µM | > 100 µM | > 100 µM | – | – | – | – | – | – | – | – | – | – | – | – | – | – | –
Cc1cc2oc3c(ccc(=O)n3C)c(=O)c2c(C)c1Cl | > 100 µM | > 100 µM | > 100 µM | – | > 100 µM | – | – | > 100 µM | – | > 100 µM | – | 81.8 µM | > 100 µM | – | – | – | – | – | – | –
O=NN1C(c2ccccc2)CCCC1c1ccccc1 (configuration not stated) | > 100 µM | > 100 µM | > 85.5 µM | > 100 µM | > 100 µM | – | – | – | – | – | – | – | – | – | – | – | – | – | – | –
CCCCOc1ccc2c(c1)CC[C@@H]1[C@@H]2CC[C@]2(C)C(=O)N(CCCC)C(=O)C[C@@H]12 | > 100 µM | > 100 µM | > 100 µM | > 100 µM | > 100 µM | – | – | > 100 µM | – | – | – | > 100 µM | > 100 µM | – | – | – | – | – | – | –
CCOC(=O)C1=C(c2ccccc2)C12N(Cc1ccccc1)C(=O)C2(c1ccccc1)c1ccccc1 (configuration not stated) | > 100 µM | 95.4 µM | 90.9 µM | > 100 µM | > 100 µM | – | – | > 100 µM | – | > 100 µM | – | > 100 µM | > 100 µM | – | – | – | – | – | – | –
O=C1c2cc3c(cc2CC1Cc1ccc2c(c1)CCC2)CCC3 (configuration not stated) | > 100 µM | 65 µM | > 100 µM | > 100 µM | > 100 µM | – | – | > 100 µM | – | > 100 µM | – | > 100 µM | > 100 µM | – | – | – | – | – | – | –
O=C(c1ccccc1O)c1cc(-c2ncc3c(=O)c4ccccc4oc3n2)c(-c2ccccc2O)[nH]c1=O | 75.1 µM | 32.7 µM | 57.1 µM | 60.4 µM | 52.6 µM | – | – | – | – | – | – | – | – | – | – | – | – | – | – | –
O=P(O)(O)CN1CCNCCN(CP(=O)(O)O)CCN(CP(=O)(O)O)CCNCC1 | – | – | – | – | – | – | – | – | – | – | – | – | – | inactive | inactive | inactive | inactive | inactive | inactive | inactive
